Results: patent US9758485B2, “Compounds for controlling arthropods” (priority 2013, dated 2017)

Assays:
[1] = tested on: Lucilia cuprina; experiment: Lucilia cuprina test; format: in vivo; conditions: application rate 100 ppm; L1 larvae in minced horsemeat; kill after 2 days
How it was run: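 About 20 L1 larvae placed on minced horsemeat treated with compound, formulated in DMSO and diluted with water to test concentration. Kill in % scored after 2 days (100% = all larvae dead, 0% = none).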

[2] = tested on: Boophilus microplus Parkhurst strain, SP-resistant; experiment: Boophilus microplus - dip test; format: in vivo; conditions: application rate 100 ppm; dip of engorged adult female ticks; laying of fertile eggs, after 7 days
How it was run: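 Adult engorged females of SP-resistant Parkhurst strain (8–10 per tube) fully immersed in compound diluted in water from a DMSO solution. Ticks then kept on filter discs in a climate-controlled room; efficacy scored from fertile egg laying at 7 days, with unclear eggs held about 42 days until hatch (100% = no fertile eggs).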

[3] = tested on: Boophilus microplus; experiment: Boophilus microplus - injection test; format: in vivo; conditions: application rate 20 μg/animal; injected into engorged adult female ticks; laying of fertile eggs, after 7 days
How it was run: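 Read-out is % efficacy from fertile egg laying at 7 days: 100% means no tick laid fertile eggs, 0% means all eggs fertile. Each of 5 engorged adult females received 1 μl of DMSO test solution injected abdominally.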

[4] = tested on: Musca domestica; experiment: Musca domestica test; format: in vivo; conditions: application rate 100 ppm; adult houseflies; kill after 2 days
How it was run: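 Compound dissolved in DMSO (10 mg per 0.5 ml) and diluted with water to the test concentration. Sponges soaked with sugar solution plus formulation were offered to 10 adult houseflies per vessel. Mortality (% kill, 100% = all dead, 0% = none) scored after 2 days.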

[5] = logP determination by HPLC on a reversed-phase column (C18), EEC Directive 79/831 Annex V.A8; format: physicochemical; conditions: for logP^a): HPLC-MS method a), Table I-T3; for log P: HPLC-MS, reversed-phase column (C18)
[6] = tested on: Ctenocephalides felis; experiment: Ctenocephalides felis - in vitro contact tests with adult cat fleas; format: in vivo; conditions: application rate 5 μg/cm^2 (=500 g/ha), after 48 h (dead or moribund)
How it was run: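 Acetone solution coated on test-tube inner walls (900 ppm gives 5 μg/cm^2). After drying, 5-10 adult cat fleas added and kept horizontal at room temperature and ambient humidity. At 48 h fleas knocked down; motionless or uncoordinated ones counted dead/moribund, giving % efficacy.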

[7] = tested on: Rhipicephalus sanguineus; experiment: Rhipicephalus sanguineus - in vitro contact tests with adult brown dog ticks; format: in vivo
How it was run: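 Test compound was dissolved in acetone p.a. (9 mg in 1 ml, then diluted), and 250 μl were spread evenly over the inner surface of 25 ml test tubes on an orbital shaker at 30 rpm for 2 h. Once the solvent evaporated, 5-10 adult Rhipicephalus sanguineus ticks were sealed in, kept dark at room temperature, and after 48 h placed on a 45-50° C. hotplate to score dead or moribund ticks.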

[8] = tested on: Amblyomma hebraeum; experiment: Amblyomma hebraeum test (tick nymphs, immersion); format: in vivo; conditions: application rate 100 ppm; tick nymphs immersed for one minute; kill after 42 days
Method: Solvent: dimethyl sulphoxide
To produce an appropriate active ingredient formulation, 10 mg of active ingredient are mixed with 0.5 ml of dimethyl sulphoxide, and the concentrate is diluted with water to the desired concentration.
Tick nymphs (Amblyomma hebraeum) are placed into perforated plastic beakers and immersed in the desired concentration for one minute. The ticks are transferred on filter paper into a Petri dish and stored in a climate-controlled cabinet.
After 42 days, the kill in % is determined. 100% means that all of the ticks have been killed; 0% means that none of the ticks have been killed.

[9] = tested on: Ctenocephalides felis; experiment: Ctenocephalides felis - oral test; format: in vivo; conditions: application rate 100 ppm in citrated cattle blood; adult fleas; kill after 2 days
How it was run: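 Compound dissolved in DMSO (10 mg in 0.5 ml stock) and diluted with citrated cattle blood to test concentration. About 20 unfed adult fleas fed on the treated blood through a parafilm membrane. Kill (%) scored after 2 days; 100% = all fleas dead.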

[10] = application rate 5 μg/cm^2, after 48 h (dead or moribund)
[11] = application rate 1 μg/cm^2, after 48 h (dead or moribund)

SMILES: CCc1cc(C(F)(C(F)(F)F)C(F)(F)F)cc(Cl)c1-n1cc(-c2ccc(Cl)c(C(=O)NC3CC3)c2)cn1 [I-T3-72]
- efficacy [1]: 100%
- efficacy [2]: 100%
- efficacy [3]: 100%
- efficacy [4]: 100%
- logP^a) [5]: 4.6
- efficacy [6]: 100%
- efficacy [7, 10]: 100%
- efficacy [8]: 100%
- efficacy [9]: 100%

SMILES: CCc1cc(C(F)(F)C(F)(F)F)cc(C)c1-n1cc(-c2ccc(Cl)c(C(=O)NC3CC3)c2)cn1 [I-T3-81]
- efficacy [1]: 100%
- efficacy [2]: 100%
- efficacy [3]: 100%
- efficacy [4]: 90%
- logP^a) [5]: 4.3
- efficacy [6]: 100%
- efficacy [7, 10]: 100%
- efficacy [8]: 100%
- efficacy [9]: 100%

SMILES: Cc1ncc(-c2cnn(-c3c(Cl)cc(C(F)(C(F)(F)F)C(F)(F)F)cc3Cl)c2)cc1C(=O)NC1CC1 [I-T3-91]
- efficacy [1]: 100%
- efficacy [2]: 100%
- efficacy [3]: 100%
- efficacy [4]: 100%
- log P [5]: 3.3
- efficacy [6]: 100%
- efficacy [7, 10]: 100%
- efficacy [8]: 100%
- efficacy [9]: 100%

SMILES: Cc1ncc(-c2cnn(-c3c(Cl)cc(C(F)(C(F)(F)F)C(F)(F)F)cc3Cl)c2)cc1C(=O)NC1(C#N)CC1 [I-T3-92]
- efficacy [1]: 100%
- efficacy [2]: 100%
- efficacy [3]: 100%
- efficacy [4]: 100%
- log P [5]: 3.4
- efficacy [6]: 100%
- efficacy [7, 10]: 80%
- efficacy [8]: 100%
- efficacy [9]: 100%

SMILES: Cc1cc(C(F)(C(F)(F)F)C(F)(F)F)cc(C)c1-n1cc(-c2cnc(C)c(C(=O)NC3CC3)c2)cn1 [I-T3-96]
- efficacy [1]: 100%
- efficacy [2]: 100%
- efficacy [3]: 100%
- efficacy [4]: 100%
- log P [5]: 3.3
- efficacy [6]: 100%
- efficacy [7, 10]: 100%
- efficacy [8]: 100%
- efficacy [9]: 100%

SMILES: Cc1cc(C(F)(C(F)(F)F)C(F)(F)F)cc(C)c1-n1cc(-c2cnc(C)c(C(=O)NC3(C#N)CC3)c2)cn1 [I-T3-97]
- efficacy [1]: 100%
- efficacy [2]: 100%
- efficacy [3]: 100%
- efficacy [4]: 100%
- log P [5]: 3.4
- efficacy [6]: 100%
- efficacy [7, 10]: 100%
- efficacy [8]: 100%
- efficacy [9]: 100%

SMILES: O=C(NC1CC1)c1cc(-c2cnn(-c3c(Cl)cc(C(F)(F)F)cc3Cl)c2)cnc1Cl [I-T3-98]
- efficacy [1]: 100%
- efficacy [2]: 100%
- efficacy [3]: 100%
- efficacy [4]: 90%
- log P [5]: 3.1
- efficacy [6]: 100%
- efficacy [7, 10]: 100%
- efficacy [8]: 100%
- efficacy [9]: 100%

SMILES: Cc1cc(C(F)(C(F)(F)F)C(F)(F)F)cc(C(F)(F)F)c1-n1cc(-c2cnc(Cl)c(C(=O)NC3CC3)c2)cn1 [I-T3-106]
- efficacy [1]: 100%
- efficacy [2]: 100%
- efficacy [3]: 100%
- efficacy [4]: 100%
- log P [5]: 4.0
- efficacy [6]: 100%
- efficacy [7, 10]: 100%
- efficacy [8]: 100%
- efficacy [9]: 100%

SMILES: Cc1cc(C(F)(C(F)(F)F)C(F)(F)F)cc(C(F)(F)F)c1-n1cc(-c2cnc(Cl)c(C(=O)NC3(C#N)CC3)c2)cn1 [I-T3-108]
- efficacy [1]: 100%
- efficacy [2]: 100%
- efficacy [3]: 100%
- efficacy [4]: 100%
- log P [5]: 4.0
- efficacy [6]: 100%
- efficacy [7, 11]: 100%
- efficacy [8]: 100%
- efficacy [9]: 100%

SMILES: CCc1cc(C(F)(C(F)(F)F)C(F)(F)F)cc(C)c1-n1cc(-c2cnc(Cl)c(C(=O)NC3CC3)c2)cn1 [I-T3-109]
- efficacy [1]: 100%
- efficacy [2]: 100%
- efficacy [3]: 100%
- efficacy [4]: 100%
- log P [5]: 4.2
- efficacy [6]: 100%
- efficacy [7, 10]: 100%
- efficacy [8]: 100%
- efficacy [9]: 100%

SMILES: CCc1cc(C(F)(C(F)(F)F)C(F)(F)F)cc(C)c1-n1cc(-c2cnc(Cl)c(C(=O)NC3(C#N)CC3)c2)cn1 [I-T3-110]
- efficacy [1]: 100%
- efficacy [2]: 100%
- efficacy [3]: 100%
- efficacy [4]: 100%
- log P [5]: 4.1
- efficacy [6]: 100%
- efficacy [7, 10]: 100%
- efficacy [8]: 100%
- efficacy [9]: 100%

SMILES: O=C(NC1CC1)c1cc(-c2cnn(-c3c(Cl)cc(C(F)(C(F)(F)F)C(F)(F)F)cc3C(F)(F)F)c2)cnc1Cl [I-T3-112]
- efficacy [1]: 100%
- efficacy [2]: 100%
- efficacy [3]: 100%
- efficacy [4]: 100%
- log P [5]: 4.0
- efficacy [6]: 100%
- efficacy [7, 10]: 100%
- efficacy [8]: 100%
- efficacy [9]: 100%

SMILES: N#CC1(NC(=O)c2cc(-c3cnn(-c4c(Cl)cc(C(F)(C(F)(F)F)C(F)(F)F)cc4C(F)(F)F)c3)cnc2Cl)CC1 [I-T3-114]
- efficacy [1]: 100%
- efficacy [2]: 100%
- efficacy [3]: 100%
- efficacy [4]: 100%
- log P [5]: 4.0
- efficacy [6]: 100%
- efficacy [7, 11]: 100%
- efficacy [8]: 100%
- efficacy [9]: 100%

SMILES: Cc1cc(C(F)(C(F)(F)F)C(F)(F)F)cc(C(F)(F)F)c1-n1cc(-c2cnc(C)c(C(=O)NC3CC3)c2)cn1 [I-T3-117]
- efficacy [1]: 100%
- efficacy [2]: 100%
- efficacy [3]: 100%
- efficacy [4]: 100%
- log P [5]: 3.5
- efficacy [6]: 100%
- efficacy [7, 10]: 100%
- efficacy [8]: 100%
- efficacy [9]: 100%

SMILES: Cc1cc(C(F)(C(F)(F)F)C(F)(F)F)cc(C(F)(F)F)c1-n1cc(-c2cnc(C)c(C(=O)NC3(C#N)CC3)c2)cn1 [I-T3-119]
- efficacy [1]: 100%
- efficacy [2]: 100%
- efficacy [3]: 100%
- efficacy [4]: 100%
- log P [5]: 3.6
- efficacy [6]: 100%
- efficacy [7, 10]: 100%
- efficacy [8]: 100%
- efficacy [9]: 100%

SMILES: Cc1cc(C(F)(C(F)(F)F)C(F)(F)F)cc(C(F)(F)F)c1-n1cc(-c2cnc(C)c(C(=O)N(C)C3(C#N)CC3)c2)cn1 [I-T3-123]
- efficacy [1]: 100%
- efficacy [2]: 100%
- efficacy [3]: 100%
- efficacy [4]: 100%
- log P [5]: 3.9
- efficacy [6]: 100%
- efficacy [7, 11]: 80%
- efficacy [8]: 80%
- efficacy [9]: 100%

SMILES: O=C(NC1CC1)c1cc(-c2cnn(-c3c(Br)cc(C(F)(C(F)(F)F)C(F)(F)F)cc3C(F)(F)F)c2)ccc1Cl [I-T3-148]
- efficacy [1]: 100%
- efficacy [2]: 100%
- efficacy [3]: 100%
- efficacy [4]: 100%
- log P [5]: 4.5
- efficacy [6]: 100%
- efficacy [7, 10]: 100%
- efficacy [8]: 100%
- efficacy [9]: 100%

SMILES: N#CC1(NC(=O)c2cc(-c3cnn(-c4c(Br)cc(C(F)(C(F)(F)F)C(F)(F)F)cc4C(F)(F)F)c3)ccc2Cl)CC1 [I-T3-155]
- efficacy [1]: 100%
- efficacy [2]: 100%
- efficacy [3]: 100%
- efficacy [4]: 100%
- log P [5]: 4.4
- efficacy [6]: 100%
- efficacy [7, 10]: 100%
- efficacy [8]: 100%
- efficacy [9]: 100%

SMILES: O=C(NC1CC1)c1cc(-c2cnn(-c3c(Cl)cc(C(F)(C(F)(F)F)C(F)(F)F)cc3OC(F)(F)F)c2)ccc1Cl [I-T3-162]
- efficacy [1]: 100%
- efficacy [2]: 100%
- efficacy [3]: 100%
- efficacy [4]: 100%
- log P [5]: 4.6
- efficacy [6]: 100%
- efficacy [7, 10]: 100%
- efficacy [8]: 100%
- efficacy [9]: 100%
